# Source: US9101576B2, “Treatment of inflammatory diseases” (The University of Chicago, priority 2006, dated 2015)
# Key:
# [1] = test system: medullary thymocytes; details: cited from earlier work
# [2] = test system: T cell; details: cited from earlier work
# [3] = test system: B7-2 deficient NOD mice; assay: Electrophysiological studies of sciatic nerve function in vivo; parameters: species or system mouse; details: FTY720 1 mg/kg oral gavage once daily for 1 month
# Description: (§1) Female B7-2 deficient NOD mice were used since they are more prone to develop SAP than their male counterparts (Salomon et al., supra). The mice were 7 months of age at the start of the study. Animals were given FTY720 (aqueous solution) at doses of 0.3 mg/kg or 1 mg/kg or vehicle alone by oral gavage once daily for 1 month. The concentrations were chosen based on dose-response studies with regard to the depletion of peripheral lymphocytes, and data from EAE studies in rats (Brinkmann et al., 2002; Fujino et al., 2003).
# Electrophysiological studies were performed to assess the effect of FTY720 on sciatic nerve function in vivo in a subset of the study animals. […] FIG. 6 likewise illustrates that FTY720 treatment improves DL and CV (FIG. 6B, showing a summary of the results from experiments performed on 12 nerves from 6 water-treated mice and 14 nerves from 7 FTY720-treated mice) but not the amplitude of sciatic CMAPs (FIG. 6A).
# [4] = test system: lymphocyte; details: cited from earlier work
# [5] = test system: B7-2 deficient NOD mice; assay: Clinical scores and grip strength in spontaneous autoimmune polyneuropathy (SAP); assay type: in vivo, mouse
# Description: as §1
# To determine the effect of FTY720 on clinical scores and grip strength of B7-2 deficient NOD mice, both qualitative and quantitative assessment was performed by blinded lab personnel. For qualitative assessment, a nominal scale (with 0 as normal and 5 as death) described by other investigators (Zhu et al., 2001a) was used. For quantitative assessment, hindlimb and forelimb strength was measured with a grip strength meter (Columbus Instruments). […] Similar results were observed when forelimb and hindlimb strength was assessed quantitatively.
# [6] = test system: B7-2 deficient NOD mice; assay: Histological evaluation of inflammatory cell infiltration in sciatic nerve sections; assay type: in vivo, mouse; details: 1.0 mg/kg; quantitative (p<0.02) and semi-quantitative (p<0.003) method; n=7
# Description: as §1
# To further evaluate the effect of FTY720 on B7-2 deficient NOD mice, histological evaluation was performed to assess inflammatory cell infiltration. […] For quantitative method, tissue areas were measured by image analysis and the number of inflammatory cells counted at ×20 magnification. The results were averaged and expressed as cells per mm^2 tissue section. For semi-quantitative method, inflammation was graded as: 1, a few scattered mononuclear inflammatory cells often subperineurial; 2, perivenular cuffing with mononuclear inflammatory cells (one or two foci); 3, extensive multifocal perivenular cuffing and widespread endoneurial inflammation.
# [7] = test system: B7-2 deficient NOD mice; assay: Demyelination and loss of myelinated fibers in epon sections; assay type: in vivo, mouse; details: 1.0 mg/kg, p<0.015, n=7
# Description: as §1
# Epon sections were prepared from vehicle-treated mice (n=6) and mice treated with 1.0 mg/kg FTY720 (n=7). […] These differences were statistically different with a p value of less than 0.015. The percentage of loss of myelinated fibers in epon sections was assessed by a blinded observer using a grid. Demyelination was graded as follows: 1, isolated demyelinated axons perivascular or scattered; 2, many foci of perivascular demyelination; 3, extensive demyelination, perivascular and confluent.
# [8] = test system: peripheral blood lymphocyte; assay: Induction of peripheral blood lymphopenia; assay type: in vivo, mouse
# Description: as §1
# The effectiveness of FTY720 was also monitored by the induction of peripheral blood lymphopenia. The peripheral blood lymphocyte count was decreased to 50-60% of vehicle-treated ones by FTY720 (0.3 mg/kg) (n=4) and to 25-30% by FTY720 (1 mg/kg) (n=3).
# [9] = test system: S1P receptors; details: transfected cells expressing individual S1P receptors; cited from earlier work
# [10] = test system: neonatal DRG-SC co-cultures; assay: Myelination in neonatal DRG-SC co-cultures; assay type: cell-based
# Description: TNF-α and IFN-γ (labeled as cytokines) acted synergistically to decrease cell viability via NOS induction and ceramide accumulation in immortalized SCs (FIG. 4) (Nagano et al., 2001). Neither cytokine alone induced cell death. These cytokines also exerted a synergistic inhibitory action on myelination in neonatal DRG-SC co-cultures, which is evident after 3 days of treatment.
molecule,measurement,setting,value
CCCCCCCOc1ccc(CC[C@@](C)(N)CO)cc1 [AAL(R)],time to downregulation of CD69,[1],≤ 2 h
"CCCCCCCCc1ccc(CCC(N)(CO)CO)cc1 [FTY720, 2-amino-2-[2-(4-octylphenyl)ethyl]-1,3-propanediol]",T cell chemotactic activity,[2],lacks T cell chemotactic activity
same,Distal Latency,"[3]; sciatic nerve, vehicle 2.59 ± 0.3, p < 0.02",1.58 ± 0.3 ms
same,Conduction Velocity,"[3]; sciatic nerve, vehicle 14.7 ± 3.0, p < 0.01",22.8 ± 3.2 m/s
same,Amplitude of sciatic CMAPs,[3]; vehicle 3.75 ± 1.8,3.8 ± 0.7 mV
same,concentration that elicits lymphocyte apoptosis,[4],> 3 µM
same,difference in clinical score between 7 months and 8 months,"[5]; 0.3 mg/kg oral once daily for 1 month, p less than 0.03, n=5",statistically significant
same,forelimb and hindlimb grip strength vs vehicle or 0.3 mg/kg,"[5]; 1.0 mg/kg oral once daily for 1 month, grip strength meter",increased grip strength
same,"clinical scores, month 7 vs month 8","[5]; 1.0 mg/kg oral once daily for 1 month, scale 0 normal to 5 death, n=10",did not increase between month 7 and month 8
same,inflammatory cell infiltration vs water-treated mice,[6],decreased inflammatory cell infiltration
same,percentage of myelinated fibers lost vs vehicle,[7],decrease in the percentage of myelinated fibers lost
same,"peripheral blood lymphocyte count, % of vehicle-treated","[8]; 0.3 mg/kg oral once daily, n=4",50-60%
same,"peripheral blood lymphocyte count, % of vehicle-treated","[8]; 1 mg/kg oral once daily, n=3",25-30%
CCCCCCCCc1ccc(CC[C@](N)(CO)COP(=O)(O)O)cc1 [FTY720-P],agonist activity at S1P receptors,[9],potent agonist of S1P receptors with the exception of S1P2
"CCCCCCCCCCCCC/C=C/[C@@H](O)[C@@H](N)COP(=O)(O)O [S1P, sphingosine 1-phosphate]",concentration that elicits T cell chemotaxis,[2]; high concentrations are inhibitory,≤ 0.1 µM
IFN-γ: pro-inflammatory Th1 cytokine,effect on myelination,[10]; IFN-γ at 50-300 U/ml alone,No effect on myelination
TNF-α,effect on myelination,[10]; TNF-α 10 ng/ml alone,No effect on myelination
same,effect on myelination,[10]; TNF-α 100 ng/ml alone,modest inhibitory action
